Legend:
Format in all cases: functional
[1] = tested on: HCT-116; experiment: Cytotoxicity against human HCT116 cells assessed as growth inhibition after 48 hrs by sulforhodamine B assay; details: HCT-116, 48 h
[2] = tested on: SF-539; experiment: Cytotoxicity against human SF539 cells assessed as cell growth at 0.01 uM after 48 hrs by sulforhodamine B assay relative to control; details: SF-539, 48 h, read-out: Activity
[3] = tested on: NCI-H23; experiment: Cytotoxicity against human NCI-H23 cells assessed as cell growth at 1 uM after 48 hrs by sulforhodamine B assay relative to control; details: NCI-H23, 48 h, read-out: Activity
[4] = tested on: SK-OV-3; experiment: Cytotoxicity against human SKOV3 cells assessed as cell growth at 0.01 uM after 48 hrs by sulforhodamine B assay relative to control; details: SK-OV-3, 48 h, read-out: Activity
[5] = tested on: NCI-H226; experiment: Cytotoxicity against human NCI-H226 cells assessed as cell growth at 0.1 uM after 48 hrs by sulforhodamine B assay relative to control; details: NCI-H226, 48 h, read-out: Activity
[6] = tested on: HL-60(TB); experiment: Cytotoxicity against human HL-60(TB) cells assessed as cell growth at 0.1 uM after 48 hrs by sulforhodamine B assay relative to control; details: HL-60, 48 h, read-out: Activity
[7] = tested on: UO-31; experiment: Cytotoxicity against human UO31 cells assessed as growth inhibition after 48 hrs by sulforhodamine B assay; details: UO-31, 48 h
[8] = tested on: HOP-62; experiment: Cytotoxicity against human HOP62 cells assessed as cell growth at 10 uM after 48 hrs by sulforhodamine B assay relative to control; details: HOP-62, 48 h, read-out: Activity
[9] = tested on: IGROV-1; experiment: Cytotoxicity against human IGROV1 cells assessed as cell growth at 100 uM after 48 hrs by sulforhodamine B assay relative to control; details: IGROV-1, 48 h, read-out: Activity
[10] = tested on: RPMI-8226; experiment: Cytotoxicity against human RPMI8226 cells assessed as cell growth at 1 uM after 48 hrs by sulforhodamine B assay relative to control; details: RPMI-8226, 48 h, read-out: Activity
[11] = tested on: SW-620; experiment: Cytotoxicity against human SW620 cells assessed as growth inhibition after 48 hrs by sulforhodamine B assay; details: SW-620, 48 h
[12] = tested on: MOLT-4; experiment: Cytotoxicity against human MOLT4 cells assessed as cell growth at 0.1 uM after 48 hrs by sulforhodamine B assay relative to control; details: MOLT-4, 48 h, read-out: Activity
[13] = tested on: Malme-3M; experiment: Cytotoxicity against human MALME-3M cells assessed as cell growth at 10 uM after 48 hrs by sulforhodamine B assay relative to control; details: read-out: Activity
[14] = tested on: KM12; experiment: Cytotoxicity against human KM12 cells assessed as cell growth at 0.1 uM after 48 hrs by sulforhodamine B assay relative to control; details: KM12, 48 h, read-out: Activity
[15] = tested on: U-251; experiment: Cytotoxicity against human U251 cells assessed as cell growth at 0.1 uM after 48 hrs by sulforhodamine B assay relative to control; details: U-251, 48 h, read-out: Activity
[16] = tested on: NCI-H322M; experiment: Cytotoxicity against human NCI-H322M cells assessed as cell growth at 0.01 uM after 48 hrs by sulforhodamine B assay relative to control; details: read-out: Activity
[17] = tested on: BT-549; experiment: Cytotoxicity against human BT549 cells assessed as cell growth at 0.01 uM after 48 hrs by sulforhodamine B assay relative to control; details: BT-549, 48 h, read-out: Activity
[18] = tested on: A549; experiment: Cytotoxicity against human A549/ATCC cells assessed as cell growth at 0.01 uM after 48 hrs by sulforhodamine B assay relative to control; details: A549, 48 h, read-out: Activity
[19] = tested on: A549; experiment: Cytotoxicity against human A549/ATCC cells assessed as cell growth at 0.1 uM after 48 hrs by sulforhodamine B assay relative to control; details: A549, 48 h, read-out: Activity
[20] = tested on: SK-MEL-5; experiment: Cytotoxicity against human SK-MEL-5 cells assessed as cell growth at 10 uM after 48 hrs by sulforhodamine B assay relative to control; details: SK-MEL-5, 48 h, read-out: Activity
[21] = tested on: T47D; experiment: Cytotoxicity against human T47D cells assessed as cell growth at 100 uM after 48 hrs by sulforhodamine B assay relative to control; details: read-out: Activity
[22] = tested on: M14; experiment: Cytotoxicity against human M14 cells assessed as cell growth at 10 uM after 48 hrs by sulforhodamine B assay relative to control; details: M14, 48 h, read-out: Activity
[23] = tested on: HCC 2998; experiment: Cytotoxicity against human HCC2998 cells assessed as cell growth at 0.01 uM after 48 hrs by sulforhodamine B assay relative to control; details: HCC 2998, 48 h, read-out: Activity
[24] = tested on: Hs-578T; experiment: Cytotoxicity against human Hs 578T cells assessed as growth inhibition after 48 hrs by sulforhodamine B assay
[25] = tested on: NCI-H522; experiment: Cytotoxicity against human NCI-H522 cells assessed as cell growth at 1 uM after 48 hrs by sulforhodamine B assay relative to control; details: NCI-H522, 48 h, read-out: Activity
[26] = tested on: NCI-H460; experiment: Cytotoxicity against human NCI-H460 cells assessed as cell growth at 10 uM after 48 hrs by sulforhodamine B assay relative to control; details: NCI-H460, 48 h, read-out: Activity
[27] = tested on: 786-0; experiment: Cytotoxicity against human 786-0 cells assessed as cell growth at 100 uM after 48 hrs by sulforhodamine B assay relative to control; details: 786-0, 48 h, read-out: Activity
[28] = tested on: HCT-15; experiment: Cytotoxicity against human HCT15 cells assessed as cell growth at 0.01 uM after 48 hrs by sulforhodamine B assay relative to control; details: HCT-15, 48 h, read-out: Activity
[29] = tested on: SNB-19; experiment: Cytotoxicity against human SNB19 cells assessed as cell growth at 10 uM after 48 hrs by sulforhodamine B assay relative to control; details: SNB-19, 48 h, read-out: Activity
[30] = tested on: IGROV-1; experiment: Cytotoxicity against human IGROV1 cells assessed as growth inhibition after 48 hrs by sulforhodamine B assay; details: IGROV-1, 48 h
[31] = tested on: UO-31; experiment: Cytotoxicity against human UO31 cells assessed as cell growth at 0.01 uM after 48 hrs by sulforhodamine B assay relative to control; details: UO-31, 48 h, read-out: Activity
[32] = tested on: HOP-62; experiment: Cytotoxicity against human HOP62 cells assessed as cell growth at 1 uM after 48 hrs by sulforhodamine B assay relative to control; details: HOP-62, 48 h, read-out: Activity
[33] = tested on: SR; experiment: Cytotoxicity against human SR cells assessed as growth inhibition after 48 hrs by sulforhodamine B assay
[34] = tested on: A498; experiment: Cytotoxicity against human A498 cells assessed as cell growth at 0.1 uM after 48 hrs by sulforhodamine B assay relative to control; details: A498, 48 h, read-out: Activity
[35] = tested on: RPMI-8226; experiment: Cytotoxicity against human RPMI8226 cells assessed as cell growth at 10 uM after 48 hrs by sulforhodamine B assay relative to control; details: RPMI-8226, 48 h, read-out: Activity

## COc1ccc(C(=O)/C=C/c2cc(-c3ccc4c(c3)OCO4)n[nH]2)cc1OC
[1]
  LC50: 56.2 µM
  TGI: 7.99 µM
[2]
  growth at 0.01 µM: 98%
[3]
  growth at 1 µM: 85%
[4]
  growth at 0.01 µM: 99%
[5]
  growth at 0.1 µM: 93%
[6]
  growth at 0.1 µM: 96%
[7]
  GI50: 2.32 µM
  LC50: 34.5 µM
  TGI: 10.1 µM
[8]
  growth at 10 µM: -29%
[9]
  growth at 100 µM: -59%
[10]
  growth at 1 µM: 51%
[11]
  LC50 (lethal concentration, 50% net cell kill): 15.9 µM
  TGI: 4.81 µM
[12]
  growth at 0.1 µM: 97%
[13]
  growth at 10 µM: 41%
[14]
  growth at 0.1 µM: 99%
[15]
  growth at 0.1 µM: 91%
[16]
  growth at 0.01 µM: 93%
[17]
  growth at 0.01 µM: 102%
[18]
  growth at 0.01 µM: 96%
[19]
  growth at 0.1 µM: 96%
[20]
  growth at 10 µM: 41%
[21]
  growth at 100 µM: -31%
[22]
  growth at 10 µM: 38%
[23]
  growth at 0.01 µM: 98%
[24]
  GI50: 2.69 µM
  LC50: > 100 µM
  TGI: 8.21 µM
[25]
  growth at 1 µM: 84%
[26]
  growth at 10 µM: -56%
[27]
  growth at 100 µM: -83%
[28]
  growth at 0.01 µM: 92%
[29]
  growth at 10 µM: 21%
[30]
  LC50: 68 µM
  TGI: 9.2 µM
[31]
  growth at 0.01 µM: 86%
[32]
  growth at 1 µM: 87%
[33]
  TGI: 6.48 µM
[33]; read-out: LC50 (the source's name)
  CC50: > 100 µM
[34]
  growth at 0.1 µM: 80%
[35]
  growth at 10 µM: -20%
